Results reported in paper PMC7676998 (Journal of medicinal chemistry, 2019).
Values joined by “and” are separate entries in the source; they are usually repeats but may differ in a detail not shown here. Equal values may be shown once. Read-outs that look alike come from different tables or passages of the source.

Columns and labels:
adrenergic α1A receptor = target: T1, adrenergic α1A receptor (Homo sapiens, UniProt P35348); experiment: Radioligand binding, adrenergic α1A
T1 sequence (P35348 1-466): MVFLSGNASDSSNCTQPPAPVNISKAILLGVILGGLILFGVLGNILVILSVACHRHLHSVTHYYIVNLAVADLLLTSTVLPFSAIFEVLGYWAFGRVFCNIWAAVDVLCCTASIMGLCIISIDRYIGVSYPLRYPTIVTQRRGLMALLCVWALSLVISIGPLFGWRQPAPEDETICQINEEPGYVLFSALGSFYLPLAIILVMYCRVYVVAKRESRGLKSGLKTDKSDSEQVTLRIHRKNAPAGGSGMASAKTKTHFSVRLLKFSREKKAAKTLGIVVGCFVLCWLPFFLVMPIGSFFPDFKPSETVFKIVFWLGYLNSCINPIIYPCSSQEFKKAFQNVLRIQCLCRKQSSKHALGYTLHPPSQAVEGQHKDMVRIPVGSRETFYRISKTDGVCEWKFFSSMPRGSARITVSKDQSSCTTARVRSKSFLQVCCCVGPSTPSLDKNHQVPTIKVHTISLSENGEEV

adrenergic α1B receptor = target: T2, adrenergic α1B receptor (Homo sapiens, UniProt P35368); experiment: Radioligand binding, adrenergic α1B
T2 sequence (P35368 1-520): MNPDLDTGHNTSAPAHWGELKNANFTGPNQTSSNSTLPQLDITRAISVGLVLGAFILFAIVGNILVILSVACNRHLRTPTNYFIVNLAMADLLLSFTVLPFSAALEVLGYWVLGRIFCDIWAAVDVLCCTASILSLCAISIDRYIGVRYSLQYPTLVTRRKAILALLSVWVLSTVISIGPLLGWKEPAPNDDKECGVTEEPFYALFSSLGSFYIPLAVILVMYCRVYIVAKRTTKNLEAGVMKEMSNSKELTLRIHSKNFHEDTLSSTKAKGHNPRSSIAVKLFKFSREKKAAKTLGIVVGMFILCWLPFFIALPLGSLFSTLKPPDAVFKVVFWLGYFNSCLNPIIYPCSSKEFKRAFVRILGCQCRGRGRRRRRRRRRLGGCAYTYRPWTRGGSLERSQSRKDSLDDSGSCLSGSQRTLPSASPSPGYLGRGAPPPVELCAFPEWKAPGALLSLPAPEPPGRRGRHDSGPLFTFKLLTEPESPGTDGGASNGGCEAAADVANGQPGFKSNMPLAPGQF

adrenergic α1D receptor = target: T3, adrenergic α1D receptor (Homo sapiens, UniProt P25100); experiment: Radioligand binding, adrenergic α1D
T3 sequence (P25100 1-572): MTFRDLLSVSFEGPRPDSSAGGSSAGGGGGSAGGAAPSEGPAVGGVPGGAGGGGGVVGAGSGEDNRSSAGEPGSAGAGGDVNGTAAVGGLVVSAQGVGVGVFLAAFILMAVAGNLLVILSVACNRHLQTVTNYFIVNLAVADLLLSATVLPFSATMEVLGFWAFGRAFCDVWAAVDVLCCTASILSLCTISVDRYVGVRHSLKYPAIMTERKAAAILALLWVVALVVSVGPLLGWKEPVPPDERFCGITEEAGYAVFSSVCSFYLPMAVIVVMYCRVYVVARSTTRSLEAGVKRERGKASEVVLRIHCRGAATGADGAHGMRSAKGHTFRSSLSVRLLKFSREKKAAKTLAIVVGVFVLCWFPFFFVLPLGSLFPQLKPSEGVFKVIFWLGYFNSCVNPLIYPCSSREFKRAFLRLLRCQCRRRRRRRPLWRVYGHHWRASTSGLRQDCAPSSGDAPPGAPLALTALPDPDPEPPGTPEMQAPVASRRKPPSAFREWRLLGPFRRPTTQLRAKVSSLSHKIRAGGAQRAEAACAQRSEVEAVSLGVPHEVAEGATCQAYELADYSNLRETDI

adrenergic α2A receptor = target: T4, adrenergic α2A receptor (Homo sapiens, UniProt P08913); experiment: Radioligand binding, adrenergic α2A
T4 sequence (P08913 1-465): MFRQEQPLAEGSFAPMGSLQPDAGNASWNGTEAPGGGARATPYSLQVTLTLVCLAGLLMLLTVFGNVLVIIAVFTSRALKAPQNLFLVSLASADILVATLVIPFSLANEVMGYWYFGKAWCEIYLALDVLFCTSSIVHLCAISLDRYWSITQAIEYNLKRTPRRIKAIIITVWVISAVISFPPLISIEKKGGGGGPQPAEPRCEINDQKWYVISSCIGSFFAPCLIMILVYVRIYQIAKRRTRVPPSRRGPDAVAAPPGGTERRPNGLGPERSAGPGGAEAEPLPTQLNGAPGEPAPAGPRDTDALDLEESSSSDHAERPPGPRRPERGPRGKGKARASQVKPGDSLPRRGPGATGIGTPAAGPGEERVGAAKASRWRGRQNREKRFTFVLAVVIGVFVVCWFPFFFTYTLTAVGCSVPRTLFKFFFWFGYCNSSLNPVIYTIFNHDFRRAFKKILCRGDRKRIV

adrenergic α2B receptor = target: T5, adrenergic α2B receptor (Homo sapiens, UniProt P18089); type: binding
T5 sequence (P18089 1-450): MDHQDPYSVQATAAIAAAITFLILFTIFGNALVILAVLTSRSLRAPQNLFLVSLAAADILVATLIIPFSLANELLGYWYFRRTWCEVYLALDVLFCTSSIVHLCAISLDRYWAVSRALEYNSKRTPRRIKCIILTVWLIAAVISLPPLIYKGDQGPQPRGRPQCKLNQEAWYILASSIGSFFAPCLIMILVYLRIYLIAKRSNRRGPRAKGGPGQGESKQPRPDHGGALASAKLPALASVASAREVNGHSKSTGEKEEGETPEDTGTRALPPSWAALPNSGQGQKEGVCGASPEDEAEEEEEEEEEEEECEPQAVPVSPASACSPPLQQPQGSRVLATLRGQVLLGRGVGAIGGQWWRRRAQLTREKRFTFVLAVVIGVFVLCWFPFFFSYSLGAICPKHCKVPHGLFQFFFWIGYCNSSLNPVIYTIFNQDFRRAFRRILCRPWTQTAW

[1] = target: delta opioid receptor (DOP) (Homo sapiens, UniProt P41143); experiment: Radioligand binding, delta opioid receptor; settings: 10,000 nM test compound
Chain of delta opioid receptor (DOP) (P41143 whole entry): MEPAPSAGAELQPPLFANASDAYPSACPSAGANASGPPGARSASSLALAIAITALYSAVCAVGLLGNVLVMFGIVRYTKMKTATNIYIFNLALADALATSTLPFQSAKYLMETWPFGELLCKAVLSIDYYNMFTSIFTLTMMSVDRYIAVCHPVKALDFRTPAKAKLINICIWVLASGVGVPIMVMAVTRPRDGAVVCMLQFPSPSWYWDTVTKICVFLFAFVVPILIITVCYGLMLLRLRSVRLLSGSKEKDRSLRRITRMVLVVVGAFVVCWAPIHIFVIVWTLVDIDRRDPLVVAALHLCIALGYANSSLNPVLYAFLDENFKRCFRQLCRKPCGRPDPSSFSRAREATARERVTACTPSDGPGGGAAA

mu opioid receptor (MOP) = mu opioid receptor (MOP) (Homo sapiens, UniProt P35372); type: binding
Chain of mu opioid receptor (MOP) (P35372 whole entry): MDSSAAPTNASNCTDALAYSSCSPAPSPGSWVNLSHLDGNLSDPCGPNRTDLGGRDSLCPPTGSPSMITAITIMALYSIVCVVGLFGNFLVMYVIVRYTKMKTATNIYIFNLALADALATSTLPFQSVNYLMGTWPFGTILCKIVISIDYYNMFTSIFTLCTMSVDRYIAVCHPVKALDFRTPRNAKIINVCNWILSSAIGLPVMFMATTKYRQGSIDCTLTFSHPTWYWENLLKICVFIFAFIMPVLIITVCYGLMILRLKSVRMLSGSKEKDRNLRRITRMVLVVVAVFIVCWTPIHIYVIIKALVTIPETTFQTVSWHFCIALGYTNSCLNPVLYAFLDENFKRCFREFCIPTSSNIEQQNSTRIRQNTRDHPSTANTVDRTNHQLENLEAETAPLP

nociceptin NOP (ORL1) = nociceptin NOP (ORL1) (Homo sapiens, UniProt P41146); experiment: Radioligand binding, nociceptin receptor
Chain of nociceptin NOP (ORL1) (P41146 whole entry): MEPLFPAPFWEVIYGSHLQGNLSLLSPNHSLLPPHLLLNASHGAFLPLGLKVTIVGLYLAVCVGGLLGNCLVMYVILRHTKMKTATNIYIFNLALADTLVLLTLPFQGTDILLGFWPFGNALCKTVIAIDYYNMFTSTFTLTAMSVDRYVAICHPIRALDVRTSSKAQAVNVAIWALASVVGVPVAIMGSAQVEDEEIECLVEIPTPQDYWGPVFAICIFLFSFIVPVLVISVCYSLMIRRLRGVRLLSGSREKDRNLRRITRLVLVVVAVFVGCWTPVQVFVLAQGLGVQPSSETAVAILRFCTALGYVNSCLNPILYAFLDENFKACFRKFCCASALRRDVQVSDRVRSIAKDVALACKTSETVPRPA

MOP [2] = target: MOP (Homo sapiens, UniProt P35372); type: cell-based
Chain of MOP (Homo sapiens, UniProt P35372) (P35372 whole entry): as the sequence (P35372 whole entry) above

KOP = KOP (Homo sapiens, UniProt P41145); experiment: cell-based; type: cell-based
Chain of KOP (P41145 whole entry): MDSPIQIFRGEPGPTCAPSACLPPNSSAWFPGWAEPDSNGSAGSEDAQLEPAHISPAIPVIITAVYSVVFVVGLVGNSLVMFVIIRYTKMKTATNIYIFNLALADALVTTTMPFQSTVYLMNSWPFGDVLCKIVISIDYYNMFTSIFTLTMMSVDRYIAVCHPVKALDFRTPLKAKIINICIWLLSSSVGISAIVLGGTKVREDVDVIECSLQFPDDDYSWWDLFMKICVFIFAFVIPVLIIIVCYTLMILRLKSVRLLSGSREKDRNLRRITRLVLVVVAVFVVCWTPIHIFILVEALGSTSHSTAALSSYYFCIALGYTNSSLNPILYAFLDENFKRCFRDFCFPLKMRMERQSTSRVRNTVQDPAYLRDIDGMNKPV

Sprague-Dawley rats [3] = settings: rat, in vivo, iv
Sprague-Dawley rats [4] = settings: rat, in vivo, iv; remark: listed apart in the source
rats = settings: Sprague-Dawley, rat, in vivo
[5] = test system: human opioid receptors (MOP); settings: BRET assay; in words ref 14; cited from earlier work
guinea pig ileum = settings: in words ref 15; cited from earlier work
DOP = DOP (Homo sapiens, UniProt P41143); type: cell-based
Chain of DOP (P41143 whole entry): as the sequence (P41143 whole entry) above

MOP [6] = settings: read-out: EC50 at MOP; other study ref 17; cited from earlier work

| SMILES | percent displacement of bound radioligand, adrenergic α1A (adrenergic α1A receptor; 100 nM test compound) | percent displacement of bound radioligand, adrenergic α1A (adrenergic α1A receptor; 10,000 nM test compound) | percent displacement of bound radioligand, adrenergic α1B (adrenergic α1B receptor; 100 nM test compound) | percent displacement of bound radioligand, adrenergic α1B (adrenergic α1B receptor; 10,000 nM test compound) | percent displacement of bound radioligand, adrenergic α1D (adrenergic α1D receptor; 100 nM test compound) | percent displacement of bound radioligand, adrenergic α1D (adrenergic α1D receptor; 10,000 nM test compound) | percent displacement of bound radioligand, adrenergic a2A (adrenergic α2A receptor; 100 nM test compound) | percent displacement of bound radioligand, adrenergic a2A (adrenergic α2A receptor; 10,000 nM test compound) | percent displacement of bound radioligand, nociceptin NOP (ORL1) (nociceptin NOP (ORL1); 100 nM test compound) | percent displacement of bound radioligand, nociceptin NOP (ORL1) (nociceptin NOP (ORL1); 10,000 nM test compound) | functional effect at MOP (MOP [2]) | functional effect at KOP (KOP) | further results |
| --- | --- | --- | --- | --- | --- | --- | --- | --- | --- | --- | --- | --- | --- |
| CC[C@@H]1CN2CCc3c([nH]c4cccc(O)c34)[C@@H]2C[C@@H]1/C(=C\OC)C(=O)OC [9-hydroxycorynantheidine] | 16.4% | 62.3% | −4.4% | 29.0% | 12.4% | 66.3% | −10.2% | 20.0% | −2.9% | 28.9% | – | – | percent displacement of bound radioligand, adrenergic α2B (adrenergic α2B receptor; 100 nM test compound): −5.7%; percent displacement of bound radioligand, adrenergic α2B (adrenergic α2B receptor; 10,000 nM test compound): 14.6%; percent displacement of bound radioligand, opioid δ [1]: 25.3%; percent displacement of bound radioligand, opioid μ (mu opioid receptor (MOP); 100 nM test compound): 29.3%; percent displacement of bound radioligand, opioid μ (mu opioid receptor (MOP); 10,000 nM test compound): 95.4% |
| CC[C@@H]1CN2CCc3c([nH]c4cccc(OC)c34)[C@H]2C[C@@H]1/C(=C\OC)C(=O)OC [speciociliatine] | – | – | – | – | – | – | – | – | −14.9% | – | partial agonists | no agonist or antagonist effects | antinociceptive effects in hot plate test (Sprague-Dawley rats [3]; 10 mg/kg): had antinociceptive effects; change in body temperature (hypothermia) (Sprague-Dawley rats [4]): produced hypothermia; lethality (rats dead / rats tested) (rats): 5/21; agonist / antagonist activity at human opioid receptors [5]: no measurable agonist activity; inhibition of electrically induced twitch contraction (guinea pig ileum): maximum inhibition of electrically induced twitch contraction of guinea pig ileum similar to morphine |
| CC[C@@H]1CN2CC[C@@]3(O)C(=Nc4cccc(OC)c43)[C@@H]2C[C@@H]1/C(=C\OC)C(=O)OC [7-hydroxymitragynine] | 10.1% | 3.5% | 5.9% | −4.8% | −1.9% | 13.5% | −6.7% | −5.4% | −1.6% | 3.4% | full agonist | competitive antagonist | percent displacement of bound radioligand, opioid μ (mu opioid receptor (MOP)): 81.8% and 100.7%; functional effect at DOP (DOP): competitive antagonist; Kb (KOP): 115 nM; effect of naltrexone on antinociception (Sprague-Dawley rats [3]; 0.1 mg/kg): reversed; EC50 (MOP [6]): 53 ± 4 nM |
